Experimental data as given in patent US12673944B2, “Compounds having inhibitory activity against glucosylceramide synthase or pharmaceutically acceptable salt thereof, processes for preparing the same, and pharmaceutical compositions comprising the same” (YUHAN CORPORATION, priority 2019, dated 2026).

Columns and labels:
[1] = biological target: T1, glucosylceramide synthase (GCS) (Homo sapiens, UniProt Q16739); experiment: GCS enzyme inhibition assay (A549 cell lysate, NBD C6-ceramide, HPLC fluorescence); type: biochemical; settings: inhibitory activity against GCS, 37° C., 90 minutes
T1 construct: The obtained supernatant was used; host or cells: A549 cells (lysate supernatant after sonication)
T1 sequence (Q16739 1-394): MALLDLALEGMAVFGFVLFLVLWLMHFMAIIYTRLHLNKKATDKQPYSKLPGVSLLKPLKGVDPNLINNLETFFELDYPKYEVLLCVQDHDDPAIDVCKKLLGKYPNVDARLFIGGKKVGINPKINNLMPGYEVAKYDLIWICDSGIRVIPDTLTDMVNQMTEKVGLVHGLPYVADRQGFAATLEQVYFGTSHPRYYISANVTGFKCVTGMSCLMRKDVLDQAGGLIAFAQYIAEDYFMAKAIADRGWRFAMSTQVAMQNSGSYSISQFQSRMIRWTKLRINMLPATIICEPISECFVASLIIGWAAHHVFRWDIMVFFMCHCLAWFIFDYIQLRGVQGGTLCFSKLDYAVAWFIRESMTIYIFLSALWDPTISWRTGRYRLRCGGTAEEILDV
In short: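 A549 cell lysate (50 mM HEPES pH 7.3) served as GCS source; reactions ran 90 min at 37° C, were stopped with chloroform/methanol and lipids extracted. Activity taken as GlcCer/(Cer+GlcCer) peak area, normalised between DMSO and ibiglustat controls.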

[2] = system: GM1 production in Jurkat cells; experiment: cells; type: cell-based; settings: Homo sapiens, Jurkat, 72 h

SMILES	IC50 [1]	IC50 [2]
CCc1cccc(-c2cc3c(cc2F)C(NC(=O)O[C@@H]2CN4CCC2CC4)C(C)(C)CO3)c1 (stereo partly drawn) [Example 333, (S)-quinuclidin-3-yl (7-(3-ethylphenyl)-6-fluoro-3,3-dimethylchroman-4-yl)carbamate]	0.45 nM	0.8 nM
CCOc1ccc(-c2ccc3c(c2)OCC(C)(C)C3NC(=O)O[C@@H]2CN3CCC2CC3)cc1C(F)(F)F (stereo partly drawn) [Example 146, (S)-quinuclidin-3-yl (7-(4-ethoxy-3-(trifluoromethyl)phenyl)-3,3-dimethylchroman-4-yl)carbamate]	0.98 nM	2.35 nM
CC1(C)COc2cc(-c3ccc(C(F)(F)F)cc3)ccc2C1NC(=O)O[C@@H]1CN2CCC1CC2 (stereo partly drawn) [Example 211, (S)-quinuclidin-3-yl (3,3-dimethyl-7-(4-(trifluoromethyl)phenyl)chroman-4-yl)carbamate]	0.71 nM	1.41 nM
CC1(C)COc2cc(-c3cccc(F)c3)c(F)cc2C1NC(=O)O[C@@H]1CN2CCC1CC2 (stereo partly drawn) [Example 330, (S)-quinuclidin-3-yl (6-fluoro-7-(3-fluorophenyl)-3,3-dimethylchroman-4-yl)carbamate]	0.28 nM	1.8 nM
COc1c(C)cc(-c2ccc3c(c2)OCC(C)(C)C3NC(=O)O[C@@H]2CN3CCC2CC3)cc1C (stereo partly drawn) [Example 255, (S)-quinuclidin-3-yl (7-(4-methoxy-3,5-dimethylphenyl)-3,3-dimethylchroman-4-yl)carbamate]	1.2 nM	5.1 nM
CN1CCC(NC(=O)O[C@@H]2CN3CCC2CC3)c2ccc(-c3coc4ccccc34)cc21 (stereo partly drawn) [Example 315, (S)-quinuclidin-3-yl (7-(benzofuran-3-yl)-1-methyl-1,2,3,4-tetrahydroquinolin-4-yl)carbamate]	14.7 nM	58.1 nM
CN(C)c1cccc(-c2ccc3c(c2)OCCC3NC(=O)O[C@@H]2CN3CCC2CC3)c1 (stereo partly drawn) [Example 41, (S)-quinuclidin-3-yl (7-(3-(dimethylamino)phenyl)chroman-4-yl)carbamate]	0.52 nM	0.45 nM
C=Cc1ccccc1-c1ccc2c(c1)OCC(C)(C)C2NC(=O)O[C@@H]1CN2CCC1CC2 (stereo partly drawn) [Example 274, (S)-quinuclidin-3-yl (3,3-dimethyl-7-(2-vinylphenyl)chroman-4-yl)carbamate]	0.58 nM	1.7 nM
COCCOc1ccccc1-c1ccc2c(c1)OCC(C)(C)C2NC(=O)O[C@@H]1CN2CCC1CC2 (stereo partly drawn) [Example 109, (S)-quinuclidin-3-yl (7-(2-(2-methoxyethoxy)phenyl)-3,3-dimethylchroman-4-yl)carbamate]	2.14 nM	2 nM
CC(C)Oc1ccc(-c2ccc3c(c2)OCC(C)(C)C3NC(=O)O[C@@H]2CN3CCC2CC3)cc1F (stereo partly drawn) [Example 261, (S)-quinuclidin-3-yl (7-(3-fluoro-4-isopropoxyphenyl)-3,3-dimethylchroman-4-yl)carbamate]	0.65 nM	2.6 nM
O=C(NC1CCOc2cc(-c3cccc(-c4ccccc4)c3)ccc21)O[C@@H]1CN2CCC1CC2 (stereo partly drawn) [Example 59, (S)-quinuclidin-3-yl (7-([1,1′-biphenyl]-3-yl)chroman-4-yl)carbamate]	0.3 nM	2.22 nM
CC1(C)COc2cc(-c3cccc(OCc4ccccc4)c3)ccc2C1NC(=O)O[C@@H]1CN2CCC1CC2 (stereo partly drawn) [Example 277, (S)-quinuclidin-3-yl (7-(3-(benzyloxy)phenyl)-3,3-dimethylchroman-4-yl)carbamate]	0.65 nM	0.9 nM
CCOc1c(C)cc(-c2ccc3c(c2)OCC(C)(C)C3NC(=O)O[C@@H]2CN3CCC2CC3)cc1C (stereo partly drawn) [Example 133, (S)-quinuclidin-3-yl (7-(4-ethoxy-3,5-dimethylphenyl)-3,3-dimethylchroman-4-yl)carbamate]	1.35 nM	0.1 nM
Cc1ccc(-c2ccc3c(c2)OCC(C)(C)C3NC(=O)O[C@@H]2CN3CCC2CC3)cc1 (stereo partly drawn) [Example 269, (S)-quinuclidin-3-yl (3,3-dimethyl-7-(p-tolyl)chroman-4-yl)carbamate]	0.66 nM	1.9 nM
CCOc1ccc(-c2ccc3c(c2)OCC(C)(C)C3NC(=O)O[C@@H]2CN3CCC2CC3)cc1 (stereo partly drawn) [Example 209, (S)-quinuclidin-3-yl (7-(4-ethoxyphenyl)-3,3-dimethylchroman-4-yl)carbamate]	0.34 nM	0.01 nM
CCOc1ccccc1-c1ccc2c(c1)OCC(C)(C)C2NC(=O)O[C@@H]1CN2CCC1CC2 (stereo partly drawn) [Example 186, (S)-quinuclidin-3-yl (7-(2-ethoxyphenyl)-3,3-dimethylchroman-4-yl)carbamate]	0.38 nM	2.81 nM

SMILES	IC50 [1]	IC50 [2]
COc1ccc(-c2ccc3c(c2)OCC(C)(C)C3NC(=O)O[C@@H]2CN3CCC2CC3)cc1F (stereo partly drawn) [Example 118, (S)-quinuclidin-3-yl (7-(3-fluoro-4-methoxyphenyl)-3,3-dimethylchroman-4-yl)carbamate]	1.63 nM	3.63 nM
O=C(NC1CCSc2ccc(-c3ccc(Cl)cc3)cc21)O[C@@H]1CN2CCC1CC2 (stereo partly drawn) [Example 316, (S)-quinuclidin-3-yl (6-(4-chlorophenyl)thiochroman-4-yl)carbamate]	36.5 nM	251 nM
CCc1ccc(-c2cc3c(cc2OC)C(NC(=O)O[C@@H]2CN4CCC2CC4)C(C)(C)CO3)cc1 (stereo partly drawn) [Example 353, (S)-quinuclidin-3-yl (7-(4-ethylphenyl)-6-methoxy-3,3-dimethylchroman-4-yl)carbamate]	0.33 nM	2.3 nM
CC(C)(C)OCc1ccc(-c2ccc3c(c2)OCC(C)(C)C3NC(=O)O[C@@H]2CN3CCC2CC3)cc1 (stereo partly drawn) [Example 141, (S)-quinuclidin-3-yl (7-(4-(tert-butoxymethyl)phenyl)-3,3-dimethylchroman-4-yl)carbamate]	0.19 nM	0.2 nM
CC1(C)COc2cc(-c3ccc4c(c3)OC(F)(F)O4)ccc2C1NC(=O)O[C@@H]1CN2CCC1CC2 (stereo partly drawn) [Example 149, (S)-quinuclidin-3-yl (7-(2,2-difluorobenzo[d][1,3]dioxol-5-yl)-3,3-dimethylchroman-4-yl)carbamate]	0.41 nM	0.03 nM
COc1cc(OC)cc(-c2ccc3c(c2)OCC(C)(C)C3NC(=O)O[C@@H]2CN3CCC2CC3)c1 (stereo partly drawn) [Example 114, (S)-quinuclidin-3-yl (7-(3,5-dimethoxyphenyl)-3,3-dimethylchroman-4-yl)carbamate]	0.75 nM	2.81 nM
CC1(C)COc2cc(-c3ccc(F)cc3F)ccc2C1NC(=O)O[C@@H]1CN2CCC1CC2 (stereo partly drawn) [Example 233, (S)-quinuclidin-3-yl (7-(2,4-difluorophenyl)-3,3-dimethylchroman-4-yl)carbamate]	0.49 nM	3 nM
O=C(NC1CCOc2cc(-c3ccc4ccncc4c3)ccc21)O[C@@H]1CN2CCC1CC2 (stereo partly drawn) [Example 57, (S)-quinuclidin-3-yl (7-(isoquinolin-7-yl)chroman-4-yl)carbamate]	3.52 nM	36.6 nM
COc1ccc(-c2cc3c(cc2F)C(NC(=O)O[C@@H]2CN4CCC2CC4)C(C)(C)CO3)c(C)c1 (stereo partly drawn) [Example 342, (S)-quinuclidin-3-yl (6-fluoro-7-(4-methoxy-2-methylphenyl)-3,3-dimethylchroman-4-yl)carbamate]	0.45 nM	3.5 nM
CC1(C)COc2cc(-c3cc(OC(F)(F)F)ccc3Cl)ccc2C1NC(=O)O[C@@H]1CN2CCC1CC2 (stereo partly drawn) [Example 142, (S)-quinuclidin-3-yl (7-(2-chloro-5-(trifluoromethoxy)phenyl)-3,3-dimethylchroman-4-yl)carbamate]	0.67 nM	0.19 nM
O=C(NC1CCOc2cc(-c3cccc4[nH]ncc34)ccc21)O[C@@H]1CN2CCC1CC2 (stereo partly drawn) [Example 48, (S)-quinuclidin-3-yl (7-(1H-indazol-4-yl)chroman-4-yl)carbamate]	6.27 nM	42 nM
Cc1ccc(-c2ccc3c(c2)OCC(C)(C)C3NC(=O)O[C@@H]2CN3CCC2CC3)cc1C#N (stereo partly drawn) [Example 199, (S)-quinuclidin-3-yl (7-(3-cyano-4-methylphenyl)-3,3-dimethylchroman-4-yl)carbamate]	0.51 nM	3.63 nM
O=C(NC1CCOc2cc(-c3cc(Cl)cc(Cl)c3)ccc21)O[C@@H]1CN2CCC1CC2 (stereo partly drawn) [Example 29, (S)-quinuclidin-3-yl (7-(3,5-dichlorophenyl)chroman-4-yl)carbamate]	2.28 nM	12.4 nM
COc1cccc(-c2ccc3c(c2)OCC(C)(C)C3NC(=O)O[C@@H]2CN3CCC2CC3)n1 (stereo partly drawn) [Example 246, (S)-quinuclidin-3-yl (7-(6-methoxypyridin-2-yl)-3,3-dimethylchroman-4-yl)carbamate]	0.75 nM	1.3 nM
CC1(C)CSc2ccc(-c3ccc(C(F)(F)F)cc3)cc2C1NC(=O)O[C@@H]1CN2CCC1CC2 (stereo partly drawn) [Example 329, (S)-quinuclidin-3-yl (3,3-dimethyl-6-(4-(trifluoromethyl)phenyl)thiochroman-4-yl)carbamate]	14.9 nM	33.8 nM
CN1CCOc2cc(-c3ccc4c(c3)OCCC4NC(=O)O[C@@H]3CN4CCC3CC4)ccc21 (stereo partly drawn) [Example 63, (S)-quinuclidin-3-yl (7-(4-methyl-3,4-dihydro-2H-benzo[b][1,4]oxazin-7-yl)chroman-4-yl)carbamate]	1.33 nM	27 nM
